Laboratory results taken from ChEMBL document CHEMBL1201862, “PubChem BioAssay data set” (2004).
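Dose response: 5 concentrations. Exposure: 48 h. Format: 96-well plates. Endpoint: linear interpolation; highest concentration if not reached. At the GI50, growth is halved.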 Calls of active or inactive are those of the source. No stated cut-off is given here; in the data, active = GI50 up to about 1.1 µM and inactive = higher.

Assays:
Experiment in all cases: NCI anticancer screen, dose series, 48 h
A498 = tested on: A498
Hs-578T = tested on: Hs-578T
KM12 = tested on: KM12
A549 = tested on: A549
EKVX = tested on: EKVX
SNB-19 = tested on: SNB-19
SR = tested on: SR
CCRF-CEM = tested on: CCRF-CEM
SN12C = tested on: SN12C
HCT-116 = tested on: HCT-116
CAKI-1 = tested on: CAKI-1
MDA-MB-435 = tested on: MDA-MB-435
IGROV-1 = tested on: IGROV-1
HCT-15 = tested on: HCT-15
OVCAR-8 = tested on: OVCAR-8
UACC-257 = tested on: UACC-257
M14 = tested on: M14
Malme-3M = tested on: Malme-3M
SNB-75 = tested on: SNB-75
OVCAR-5 = tested on: OVCAR-5
OVCAR-3 = tested on: OVCAR-3
RPMI-8226 = tested on: RPMI-8226
MDA-N = tested on: MDA-N
RXF 393 = tested on: RXF 393
BT-549 = tested on: BT-549
HOP-62 = tested on: HOP-62
PC-3 = tested on: PC-3
SK-OV-3 = tested on: SK-OV-3
NCI-H226 = tested on: NCI-H226
UACC-62 = tested on: UACC-62
TK-10 = tested on: TK-10
LOX IMVI = tested on: LOX IMVI
SW-620 = tested on: SW-620
K562 = tested on: K562
NCI-H23 = tested on: NCI-H23
MOLT-4 = tested on: MOLT-4
SF-295 = tested on: SF-295
MDA-MB-231 = tested on: MDA-MB-231
HL-60 = tested on: HL-60
SK-MEL-5 = tested on: SK-MEL-5
NCI/ADR-RES = tested on: NCI/ADR-RES
SK-MEL-2 = tested on: SK-MEL-2
COLO 205 = tested on: COLO 205
SK-MEL-28 = tested on: SK-MEL-28
SF-268 = tested on: SF-268
HT-29 = tested on: HT-29
UO-31 = tested on: UO-31
DU-145 = tested on: DU-145
U-251 = tested on: U-251
786-0 = tested on: 786-0
T47D = tested on: T47D
SF-539 = tested on: SF-539
HOP-92 = tested on: HOP-92
ACHN = tested on: ACHN
OVCAR-4 = tested on: OVCAR-4
NCI-H522 = tested on: NCI-H522
NCI-H460 = tested on: NCI-H460
HCC 2998 = tested on: HCC 2998
MCF7 = tested on: MCF7

## CC(C)/C(=N\[N+](C)(C)C)c1ccccc1
A498
  GI50: > 100 µM (inactive)
Hs-578T
  GI50: > 100 µM (inactive)
KM12
  GI50: > 100 µM (inactive)
A549
  GI50: > 100 µM (inactive)
EKVX
  GI50: > 100 µM (inactive)
SNB-19
  GI50: > 100 µM (inactive)
SR
  GI50: > 100 µM (inactive)
CCRF-CEM
  GI50: > 100 µM (inactive)
SN12C
  GI50: > 100 µM (inactive)
HCT-116
  GI50: > 100 µM (inactive)
CAKI-1
  GI50: > 100 µM (inactive)
MDA-MB-435
  GI50: > 100 µM (inactive)
IGROV-1
  GI50: > 100 µM (inactive)
HCT-15
  GI50: > 100 µM
OVCAR-8
  GI50: > 100 µM (inactive)
UACC-257
  GI50: > 100 µM (inactive)
M14
  GI50: > 100 µM (inactive)
Malme-3M
  GI50: > 100 µM (inactive)
SNB-75
  GI50: > 100 µM (inactive)
OVCAR-5
  GI50: > 100 µM (inactive)
OVCAR-3
  GI50: > 100 µM (inactive)
RPMI-8226
  GI50: > 100 µM (inactive)
MDA-N
  GI50: > 100 µM (inactive)
RXF 393
  GI50: > 100 µM (inactive)
BT-549
  GI50: > 100 µM (inactive)
HOP-62
  GI50: > 100 µM (inactive)
PC-3
  GI50: > 100 µM (inactive)
SK-OV-3
  GI50: > 100 µM (inactive)
NCI-H226
  GI50: > 100 µM (inactive)
UACC-62
  GI50: > 100 µM (inactive)
TK-10
  GI50: > 100 µM (inactive)
LOX IMVI
  GI50: > 100 µM (inactive)
SW-620
  GI50: > 100 µM (inactive)
K562
  GI50: > 100 µM (inactive)
NCI-H23
  GI50: > 100 µM (inactive)
MOLT-4
  GI50: > 100 µM (inactive)
SF-295
  GI50: > 100 µM (inactive)
MDA-MB-231
  GI50: > 100 µM (inactive)
HL-60
  GI50: > 100 µM (inactive)
SK-MEL-5
  GI50: > 100 µM (inactive)
NCI/ADR-RES
  GI50: > 100 µM (inactive)
SK-MEL-2
  GI50: > 100 µM (inactive)
COLO 205
  GI50: > 100 µM (inactive)
SK-MEL-28
  GI50: > 100 µM (inactive)
SF-268
  GI50: > 100 µM (inactive)
HT-29
  GI50: > 100 µM (inactive)
UO-31
  GI50: > 100 µM (inactive)
DU-145
  GI50: > 100 µM (inactive)
U-251
  GI50: > 100 µM (inactive)
786-0
  GI50: > 100 µM (inactive)
T47D
  GI50: > 100 µM (inactive)
SF-539
  GI50: > 100 µM (inactive)
HOP-92
  GI50: 69.3 µM (inactive)
ACHN
  GI50: > 100 µM (inactive)
OVCAR-4
  GI50: > 100 µM (inactive)
NCI-H522
  GI50: > 100 µM (inactive)
NCI-H460
  GI50: > 100 µM (inactive)
HCC 2998
  GI50: > 100 µM (inactive)
MCF7
  GI50: > 100 µM (inactive)

## COc1cc(C=O)cc(/C=N/c2ccc(S(N)(=O)=O)cc2)c1O
A498
  GI50: 23.8 µM (inactive)
Hs-578T
  GI50: 2.82 µM (inactive)
KM12
  GI50: 27.7 µM (inactive)
A549
  GI50: 44.1 µM (inactive)
EKVX
  GI50: 56.2 µM (inactive)
SNB-19
  GI50: 11.3 µM (inactive)
SR
  GI50: 6.11 µM (inactive)
CCRF-CEM
  GI50: 9.77 µM (inactive)
SN12C
  GI50: 6.65 µM (inactive)
HCT-116
  GI50: 18.2 µM (inactive)
CAKI-1
  GI50: 7.38 µM (inactive)
MDA-MB-435
  GI50: 9.2 µM (inactive)
IGROV-1
  GI50: > 100 µM (inactive)
HCT-15
  GI50: 63.1 µM
OVCAR-8
  GI50: 6.21 µM (inactive)
UACC-257
  GI50: 6.92 µM (inactive)
M14
  GI50: 3.92 µM (inactive)
Malme-3M
  GI50: 2.88 µM (inactive)
SNB-75
  GI50: 23.9 µM (inactive)
OVCAR-5
  GI50: 26.7 µM (inactive)
OVCAR-3
  GI50: 26.1 µM (inactive)
RPMI-8226
  GI50: 7.13 µM (inactive)
MDA-N
  GI50: 5.6 µM (inactive)
RXF 393
  GI50: 3.99 µM (inactive)
BT-549
  GI50: 6.73 µM (inactive)
HOP-62
  GI50: 13.5 µM (inactive)
PC-3
  GI50: 2.96 µM (inactive)
SK-OV-3
  GI50: 2.9 µM (inactive)
NCI-H226
  GI50: 4.3 µM (inactive)
UACC-62
  GI50: 23.8 µM (inactive)
TK-10
  GI50: 31.7 µM (inactive)
LOX IMVI
  GI50: 10.9 µM (inactive)
SW-620
  GI50: 24.4 µM (inactive)
K562
  GI50: 47 µM (inactive)
NCI-H23
  GI50: > 100 µM (inactive)
MOLT-4
  GI50: 18 µM (inactive)
SF-295
  GI50: 3.64 µM (inactive)
MDA-MB-231
  GI50: 20.4 µM (inactive)
HL-60
  GI50: 25.4 µM (inactive)
SK-MEL-5
  GI50: 4.91 µM (inactive)
NCI/ADR-RES
  GI50: 10.5 µM (inactive)
SK-MEL-2
  GI50: 4.47 µM (inactive)
COLO 205
  GI50: 16.6 µM (inactive)
SK-MEL-28
  GI50: 4.36 µM (inactive)
SF-268
  GI50: 4.13 µM (inactive)
HT-29
  GI50: 13.7 µM (inactive)
UO-31
  GI50: 5.51 µM (inactive)
DU-145
  GI50: 40.1 µM (inactive)
U-251
  GI50: 5.36 µM (inactive)
T47D
  GI50: 14.3 µM (inactive)
SF-539
  GI50: 2.93 µM (inactive)
HOP-92
  GI50: 2.86 µM (inactive)
ACHN
  GI50: 3.82 µM (inactive)
OVCAR-4
  GI50: > 100 µM (inactive)
NCI-H522
  GI50: 21.2 µM (inactive)
NCI-H460
  GI50: 26.2 µM (inactive)
HCC 2998
  GI50: 19.3 µM (inactive)
MCF7
  GI50: > 100 µM (inactive)

## COc1nc(N)c(N=O)c(OCc2ccccc2)n1
A498
  GI50: > 10 µM (inactive)
Hs-578T
  GI50: > 10 µM (inactive)
KM12
  GI50: > 10 µM (inactive)
A549
  GI50: > 10 µM (inactive)
EKVX
  GI50: 2.64 µM (inactive)
SNB-19
  GI50: > 10 µM (inactive)
SR
  GI50: 4.84 µM (inactive)
CCRF-CEM
  GI50: 2.31 µM (inactive)
SN12C
  GI50: 7.59 µM (inactive)
HCT-116
  GI50: 9.71 µM (inactive)
CAKI-1
  GI50: 3.51 µM (inactive)
MDA-MB-435
  GI50: 6.31 µM (inactive)
IGROV-1
  GI50: > 10 µM (inactive)
HCT-15
  GI50: 2.5 µM
OVCAR-8
  GI50: 3.52 µM (inactive)
UACC-257
  GI50: > 10 µM (inactive)
M14
  GI50: 4.84 µM (inactive)
Malme-3M
  GI50: 3.12 µM (inactive)
SNB-75
  GI50: > 10 µM (inactive)
OVCAR-5
  GI50: > 10 µM (inactive)
OVCAR-3
  GI50: 4.01 µM (inactive)
RPMI-8226
  GI50: > 10 µM (inactive)
MDA-N
  GI50: 5.36 µM (inactive)
RXF 393
  GI50: 5.15 µM (inactive)
BT-549
  GI50: 4.01 µM (inactive)
HOP-62
  GI50: > 10 µM (inactive)
PC-3
  GI50: > 10 µM (inactive)
SK-OV-3
  GI50: > 10 µM (inactive)
NCI-H226
  GI50: > 10 µM (inactive)
UACC-62
  GI50: 5.89 µM (inactive)
TK-10
  GI50: > 10 µM (inactive)
LOX IMVI
  GI50: 4.19 µM (inactive)
SW-620
  GI50: 1.61 µM (inactive)
K562
  GI50: > 10 µM (inactive)
NCI-H23
  GI50: > 10 µM (inactive)
MOLT-4
  GI50: 8.39 µM (inactive)
SF-295
  GI50: > 10 µM (inactive)
MDA-MB-231
  GI50: 3.32 µM (inactive)
HL-60
  GI50: 4.84 µM (inactive)
SK-MEL-5
  GI50: 7.89 µM (inactive)
NCI/ADR-RES
  GI50: 6.55 µM (inactive)
SK-MEL-2
  GI50: > 10 µM (inactive)
COLO 205
  GI50: 1.09 µM (active)
SK-MEL-28
  GI50: > 10 µM (inactive)
SF-268
  GI50: > 10 µM (inactive)
HT-29
  GI50: 3.38 µM (inactive)
DU-145
  GI50: > 10 µM (inactive)
U-251
  GI50: > 10 µM (inactive)
786-0
  GI50: 5.21 µM (inactive)
T47D
  GI50: 2.76 µM (inactive)
SF-539
  GI50: 3.3 µM (inactive)
HOP-92
  GI50: > 10 µM (inactive)
ACHN
  GI50: 7.35 µM (inactive)
OVCAR-4
  GI50: 3.61 µM (inactive)
NCI-H522
  GI50: 1.71 µM (inactive)
NCI-H460
  GI50: 9.29 µM (inactive)
HCC 2998
  GI50: > 10 µM (inactive)
MCF7
  GI50: 5.04 µM (inactive)
